One data set concerns hepatocarcinogenesis. The note with it: cited from earlier work.
Data set [1] has as its system model of hepatic carcinogenesis. The note with it: cited from earlier work.
Another data set relates to advanced HCC. The note with it: patients with advanced HCC; cited from earlier work.
Data set [2] has as its target T1, kynurenine 3-monooxygenase (KMO) (Mus musculus, UniProt Q91WN4).
T1 construct: supplying C57BL/6 mice for 4 days with a DDC-supplemented diet; from tissue; host or cells: liver of living C57BL/6 mice (in vivo dosing)
Put plainly: Ro-61-8048 treatment of C57BL/6 mice previously fed DDC diet (liver NAD+ and DNA damage). The note with it: 25 mg/Kg intraperitoneally for 3 consecutive days after 4 days DDC diet, vs DMSO. The class given is in vivo. The protocol:
Freshly harvested murine livers were fixed immediately in 10% buffered formalin solution overnight and embedded in paraffin. Sections of 3 μm were deparafinized, rehydrated and antigen retrieved by using 1M sodium citrate buffer (pH 6.5). After blocking endogenous peroxidase using 3% H2O2 (in methanol) for 5 min, sections were then blocked with 1:200 goat serum 5% BSA/PBST for 1 h at RT. Furthermore, sections were incubated with primary antibodies overnight at 4° C., after which Vectastain ABC kit (Vector Laboratories, Inc) was used, following manufacturer's instructions. Sections were then incubated with 33-diaminobenzidinetetracloride (DBA) and counterstained with hematoxylin. In the case of immunofluorescence, sections were incubated with PE-conjugated secondary antibodies (1:500) for 1 h at RT, followed by DAPI staining. Quantification was performed either by counting the number of positive cells in a minimum of six 10× or 20× microscopic fields, or the percentage of positive area using Color Deconvolution plug-in in Image J.
NAD+ levels were determined using a commercial kit (Enzychrom, BioAssays Systems, CA), and as previously described (Canto et al., 2012, Cell Metab 15, 838-847). NAD+/NADH assay kit is based on a […] cycling reaction, in which the formed NADH reduces a formazan (MTT) reagent. […]

T1 sequence (Q91WN4 whole entry): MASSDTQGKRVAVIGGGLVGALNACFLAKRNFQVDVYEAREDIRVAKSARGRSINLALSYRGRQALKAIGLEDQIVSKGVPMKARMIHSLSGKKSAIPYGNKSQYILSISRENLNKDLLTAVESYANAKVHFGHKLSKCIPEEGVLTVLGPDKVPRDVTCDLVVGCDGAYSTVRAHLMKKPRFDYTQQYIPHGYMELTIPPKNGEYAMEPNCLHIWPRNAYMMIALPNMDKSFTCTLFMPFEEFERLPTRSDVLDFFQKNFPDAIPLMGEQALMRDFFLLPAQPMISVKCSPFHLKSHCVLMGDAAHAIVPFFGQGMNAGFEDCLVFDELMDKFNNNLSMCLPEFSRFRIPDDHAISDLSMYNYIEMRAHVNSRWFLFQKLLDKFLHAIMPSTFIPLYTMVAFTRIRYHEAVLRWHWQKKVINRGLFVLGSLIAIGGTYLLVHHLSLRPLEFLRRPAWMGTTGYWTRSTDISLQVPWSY

In the case of `NC(=O)c1cccnc1` [nicotinamide], the hepatocarcinogenesis entry in the data set with hepatocarcinogenesis (both in vitro and in vivo) is listed as “effectively inhibits”. In addition, in the data set on hepatocarcinogenesis (in vivo), the “formation of loci and adenomas” value is recorded as “lower formation”. In addition, in data set [1], the “number of foci, their diameter or proportion of liver occupied by loci” value is on record as “no effect”.
For the compound `CNC(=O)c1cc(Oc2ccc(NC(=O)Nc3ccc(Cl)c(C(F)(F)F)c3)cc2)ccn1` [sorafenib], the “prolongation of survival compared to placebo” value in the data set on advanced HCC is reported as “around 2 months”.
On to `COc1ccc(S(=O)(=O)Nc2nc(-c3cccc([N+](=O)[O-])c3)cs2)cc1OC` [Ro-61-8048], for which, in data set [2], the “DNA damage foci (γH2AX) in livers” value was “significantly elevated” and the “NAD+ concentrations in livers” value is “reduced”.

Source of the values: patent US20170312300A1, “Methods for Treating Cancer” (Fundacion Centro National de Investigaciones Oncolgicas …, priority 2014, published 2017).
